{
  "source": "ChEMBL document CHEMBL3044665",
  "about": "“Adzuki bean (Vigna angularis) responses to post-emergence herbicides” (Crop Prot, 2006)",
  "format_in_all_cases": "organism-based",
  "key": {"Phaseolus vulgaris [1]": {"tested_on": "Phaseolus vulgaris", "test": "Phytotoxicity in Phaseolus vulgaris (cranberry bean) assessed as visual injury at 1080 g ai/ha applied as spray during post emergence after 7 days relative to untreated control", "conditions": "in vivo, other, 168 h"}, "Phaseolus vulgaris [2]": {"tested_on": "Phaseolus vulgaris", "test": "Phytotoxicity in Phaseolus vulgaris (dry bean) assessed as visual injury at 1080 g ai/ha applied as spray during post emergence relative to untreated control", "conditions": "in vivo, other"}, "Vigna angularis [3]": {"tested_on": "Vigna angularis", "test": "Phytotoxicity in Vigna angularis (adzuki bean) assessed as decrease in shoot dry weight at 1080 g ai/ha after 42 days applied as spray relative to untreated control", "parameters": "scale not given: the % may be the effect or the level left", "conditions": "in vivo, other, 1008 h"}, "Vigna angularis [4]": {"tested_on": "Vigna angularis", "test": "Phytotoxicity in Vigna angularis (adzuki bean) assessed as visual injury at 2160 g ai/ha after 14 days applied as spray relative to untreated control", "conditions": "in vivo, other, 336 h"}, "Vigna angularis [5]": {"tested_on": "Vigna angularis", "test": "Phytotoxicity in Vigna angularis (adzuki bean) assessed as seed moisture content at 1080 g ai/ha after 42 days applied as spray (reference value: 13.9%)", "conditions": "in vivo, other, 1008 h, at 1080 g/ha"}, "Vigna angularis [6]": {"tested_on": "Vigna angularis", "test": "Phytotoxicity in Vigna angularis (adzuki bean) assessed as visual injury at 1080 g ai/ha after 14 days applied as spray relative to untreated control", "conditions": "in vivo, other, 336 h"}, "Phaseolus vulgaris [7]": {"tested_on": "Phaseolus vulgaris", "test": "Phytotoxicity in Phaseolus vulgaris (black bean) assessed as visual injury at 1080 g ai/ha applied as spray during post emergence after 7 days relative to untreated control", "conditions": "in vivo, other, 168 h"}, "Vigna angularis [8]": {"tested_on": "Vigna angularis", "test": "Phytotoxicity in Vigna angularis (adzuki bean) assessed as decrease in plant height at 2160 g ai/ha after 28 days applied as spray relative to untreated control", "parameters": "scale not given: the % may be the effect or the level left", "conditions": "in vivo, other, 672 h"}, "Vigna angularis [9]": {"tested_on": "Vigna angularis", "test": "Phytotoxicity in Vigna angularis (adzuki bean) assessed as decrease in crop yield at 1080 g ai/ha measured during post emergence applied as spray relative to untreated control", "conditions": "in vivo, other"}, "Vigna angularis [10]": {"tested_on": "Vigna angularis", "test": "Phytotoxicity in Vigna angularis (adzuki bean) assessed as decrease in crop yield at 2160 g ai/ha measured during post emergence applied as spray relative to untreated control", "conditions": "in vivo, other"}, "Phaseolus vulgaris [11]": {"tested_on": "Phaseolus vulgaris", "test": "Phytotoxicity in Phaseolus vulgaris (white navy bean) assessed as decrease in crop yield relative to untreated control", "conditions": "in vivo"}, "Vigna angularis [12]": {"tested_on": "Vigna angularis", "test": "Phytotoxicity in Vigna angularis (adzuki bean) assessed as visual injury at 2160 g ai/ha after 7 days applied as spray relative to untreated control", "conditions": "in vivo, other, 168 h"}, "Vigna angularis [13]": {"tested_on": "Vigna angularis", "test": "Phytotoxicity in Vigna angularis (adzuki bean) assessed as seed moisture content at 2160 g ai/ha after 42 days applied as spray (reference value: 13.9%)", "conditions": "in vivo, other, 1008 h, at 2160 g/ha"}, "Vigna angularis [14]": {"tested_on": "Vigna angularis", "test": "Phytotoxicity in Vigna angularis (adzuki bean) assessed as decrease in plant height at 1080 g ai/ha after 28 days applied as spray relative to untreated control", "parameters": "scale not given: the % may be the effect or the level left", "conditions": "in vivo, other, 672 h"}, "Vigna angularis [15]": {"tested_on": "Vigna angularis", "test": "Phytotoxicity in Vigna angularis (adzuki bean) assessed as visual injury at 1080 g ai/ha after 28 days applied as spray relative to untreated control", "conditions": "in vivo, other, 672 h"}, "Vigna angularis [16]": {"tested_on": "Vigna angularis", "test": "Phytotoxicity in Vigna angularis (adzuki bean) assessed as visual injury at 2160 g ai/ha after 28 days applied as spray relative to untreated control", "conditions": "in vivo, other, 672 h"}, "Vigna angularis [17]": {"tested_on": "Vigna angularis", "test": "Phytotoxicity in Vigna angularis (adzuki bean) assessed as decrease in shoot dry weight at 2160 g ai/ha after 42 days applied as spray relative to untreated control", "parameters": "scale not given: the % may be the effect or the level left", "conditions": "in vivo, other, 1008 h"}, "Vigna angularis [18]": {"tested_on": "Vigna angularis", "test": "Phytotoxicity in Vigna angularis (adzuki bean) assessed as visual injury at 1080 g ai/ha after 7 days applied as spray relative to untreated control", "conditions": "in vivo, other, 168 h"}, "Vigna angularis [19]": {"tested_on": "Vigna angularis", "test": "Phytotoxicity in Vigna angularis (adzuki bean) assessed as visual injury at 480 g ai/ha after 7 days applied as spray relative to untreated control", "conditions": "in vivo, other, 168 h"}, "Vigna angularis [20]": {"tested_on": "Vigna angularis", "test": "Phytotoxicity in Vigna angularis (adzuki bean) assessed as seed moisture content at 480 g ai/ha after 42 days applied as spray (reference value: 13.9%)", "conditions": "in vivo, other, 1008 h, at 480 g/ha"}, "Vigna angularis [21]": {"tested_on": "Vigna angularis", "test": "Phytotoxicity in Vigna angularis (adzuki bean) assessed as seed moisture content at 240 g ai/ha after 42 days applied as spray (reference value: 13.9%)", "conditions": "in vivo, other, 1008 h, at 240 g/ha"}, "Vigna angularis [22]": {"tested_on": "Vigna angularis", "test": "Phytotoxicity in Vigna angularis (adzuki bean) assessed as visual injury at 240 g ai/ha after 14 days applied as spray relative to untreated control", "conditions": "in vivo, other, 336 h"}, "Vigna angularis [23]": {"tested_on": "Vigna angularis", "test": "Phytotoxicity in Vigna angularis (adzuki bean) assessed as plant height at 480 g ai/ha after 28 days applied as spray (RVB = 34 cm)", "conditions": "in vivo, other, 672 h"}, "Vigna angularis [24]": {"tested_on": "Vigna angularis", "test": "Phytotoxicity in Vigna angularis (adzuki bean) assessed as crop yield at 240 g ai/ha measured during post-emergence applied as spray (reference value: 2.05 t/ha)", "conditions": "in vivo, other"}, "Vigna angularis [25]": {"tested_on": "Vigna angularis", "test": "Phytotoxicity in Vigna angularis (adzuki bean) assessed as plant height at 240 g ai/ha after 28 days applied as spray (RVB = 34 cm)", "conditions": "in vivo, other, 672 h"}, "Vigna angularis [26]": {"tested_on": "Vigna angularis", "test": "Phytotoxicity in Vigna angularis (adzuki bean) assessed as visual injury at 240 g ai/ha after 28 days applied as spray relative to untreated control", "conditions": "in vivo, other, 672 h"}, "Vigna angularis [27]": {"tested_on": "Vigna angularis", "test": "Phytotoxicity in Vigna angularis (adzuki bean) assessed as visual injury at 480 g ai/ha after 28 days applied as spray relative to untreated control", "conditions": "in vivo, other, 672 h"}, "Vigna angularis [28]": {"tested_on": "Vigna angularis", "test": "Phytotoxicity in Vigna angularis (adzuki bean) assessed as visual injury at 480 g ai/ha after 14 days applied as spray relative to untreated control", "conditions": "in vivo, other, 336 h"}, "Vigna angularis [29]": {"tested_on": "Vigna angularis", "test": "Phytotoxicity in Vigna angularis (adzuki bean) assessed as shoot dry weight at 240 g ai/ha measured per 1 m row after 42 days applied as spray (reference value: 153 g)", "conditions": "in vivo, other, 1008 h"}, "Vigna angularis [30]": {"tested_on": "Vigna angularis", "test": "Phytotoxicity in Vigna angularis (adzuki bean) assessed as decrease in shoot dry weight at 480 g ai/ha after 42 days applied as spray relative to untreated control", "parameters": "scale not given: the % may be the effect or the level left", "conditions": "in vivo, other, 1008 h"}, "Vigna angularis [31]": {"tested_on": "Vigna angularis", "test": "Phytotoxicity in Vigna angularis (adzuki bean) assessed as crop yield at 480 g ai/ha measured during post emergence applied as spray (reference value: 2.05 t/ha)", "conditions": "in vivo, other"}, "Vigna angularis [32]": {"tested_on": "Vigna angularis", "test": "Phytotoxicity in Vigna angularis (adzuki bean) assessed as visual injury at 240 g ai/ha after 7 days applied as spray relative to untreated control", "conditions": "in vivo, other, 168 h"}},
  "data": [
    {"smiles": "CC(C)N1C(=O)c2ccccc2NS1(=O)=O", "note": "[BENTAZON]", "values": [
      {"measurement": "Activity", "setting": "Phaseolus vulgaris [1]", "result": "< 2", "unit": "%"},
      {"measurement": "Activity", "setting": "Phaseolus vulgaris [2]", "result": 3, "unit": "%"},
      {"measurement": "Activity", "setting": "Vigna angularis [3]", "result": 60, "unit": "%"},
      {"measurement": "Activity", "setting": "Vigna angularis [4]", "result": 43.5, "unit": "%"},
      {"measurement": "Activity", "setting": "Vigna angularis [5]", "result": 15, "unit": "%"},
      {"measurement": "Activity", "setting": "Vigna angularis [6]", "result": 33.2, "unit": "%"},
      {"measurement": "Activity", "setting": "Phaseolus vulgaris [7]", "result": "< 3", "unit": "%"},
      {"measurement": "Activity", "setting": "Vigna angularis [8]", "result": 43, "unit": "%"},
      {"measurement": "Crop_yield", "setting": "Vigna angularis [9]", "result": 48, "unit": "%"},
      {"measurement": "Crop_yield", "setting": "Vigna angularis [10]", "result": 56, "unit": "%"},
      {"measurement": "Crop_yield", "setting": "Phaseolus vulgaris [11]", "result": "<= 21%"},
      {"measurement": "Activity", "setting": "Vigna angularis [12]", "result": 36.4, "unit": "%"},
      {"measurement": "Activity", "setting": "Vigna angularis [13]", "result": 15.3, "unit": "%"},
      {"measurement": "Activity", "setting": "Vigna angularis [14]", "result": 37, "unit": "%"},
      {"measurement": "Activity", "setting": "Vigna angularis [15]", "result": 29.8, "unit": "%"},
      {"measurement": "Activity", "setting": "Vigna angularis [16]", "result": 38.1, "unit": "%"},
      {"measurement": "Activity", "setting": "Vigna angularis [17]", "result": 65, "unit": "%"},
      {"measurement": "Activity", "setting": "Vigna angularis [18]", "result": 29.5, "unit": "%"}
    ]},
    {"smiles": "CS(=O)(=O)NC(=O)c1cc(Oc2ccc(C(F)(F)F)cc2Cl)ccc1[N+](=O)[O-]", "note": "[FOMESAFEN]", "values": [
      {"measurement": "Activity", "setting": "Vigna angularis [19]", "result": 9.8, "unit": "%"},
      {"measurement": "Activity", "setting": "Vigna angularis [20]", "result": 14.4, "unit": "%"},
      {"measurement": "Activity", "setting": "Vigna angularis [21]", "result": 14.2, "unit": "%"},
      {"measurement": "Activity", "setting": "Vigna angularis [22]", "result": 4.6, "unit": "%"},
      {"measurement": "Activity", "setting": "Vigna angularis [23]", "result": 31.3, "unit": "cm"},
      {"measurement": "Crop_yield", "setting": "Vigna angularis [24]", "result": 1.88, "unit": "tons/ha"},
      {"measurement": "Activity", "setting": "Vigna angularis [25]", "result": 32.4, "unit": "cm"},
      {"measurement": "Activity", "setting": "Vigna angularis [26]", "result": 1.7, "unit": "%"},
      {"measurement": "Activity", "setting": "Vigna angularis [27]", "result": 2.6, "unit": "%"},
      {"measurement": "Activity", "setting": "Vigna angularis [28]", "result": 7.2, "unit": "%"},
      {"measurement": "Activity", "setting": "Vigna angularis [29]", "result": 140, "unit": "g"},
      {"measurement": "Activity", "setting": "Vigna angularis [30]", "result": 16, "unit": "%"},
      {"measurement": "Crop_yield", "setting": "Vigna angularis [31]", "result": 1.81, "unit": "tons/ha"},
      {"measurement": "Activity", "setting": "Vigna angularis [32]", "result": 6.8, "unit": "%"}
    ]}
  ]
}
